Data set [1] in a line: Cys-triggered fluorescence turn on in PBS. The note with it: compound 10 μM in PBS, no Cys. As for the experimental part:
Representative Measurement of Fluorescence Intensity of Compound Embodiments—A freshly prepared compound 202a stock solution (3.00 μL, 10.0 mM in DMSO) was added to 3.00 mL of PBS (Ph 7.40, 10.0 Mm) containing CA (25.0 μg/mL) in a quartz fluorescence cuvette. A Cys stock solution (10.0 mM) was then added to reach the desired working concentration. The reaction solution was excited at 490 nm and the fluorescence intensity (500-650 nm) was measured and recorded using a Quanta Master 40 spectrofluorometer.
In this example, it was determined that Cys-induced compound 202a activation can be monitored by tracking the fluorescein formation and accompanied fluorescence response, and, in some embodiments, the reaction proceeds more quickly when higher concentrations of thiols are added. Time-dependent fluorescence spectra (FIG. 2A) and UV-vis spectra (FIG. 2B) of a particular compound embodiment, compound 202a, (10 μM) in PBS buffer (pH 7.4, 10 mM) containing Cys (100 μM) and CA (25 μg/mL) were obtained using a fluorescence spectrometer. […] Fluorescein formation was also confirmed by UV-vis spectroscopy under the identical conditions (FIG. 2B). Specifically, a freshly prepared compound 202a stock solution (3.00 μL, 10.0 mM in DMSO) was added to 3.00 mL of PBS (pH 7.40, 10.0 mM) containing CA (25.0 μg/mL) in a quartz UV cuvette. A Cys stock solution (30.0 μL, 10.0 mM in H2O) was then added. The absorbance (350-600 nm) was measured for 3 hours using a Cary 100 spectrometer. A Cys-dependent fluorescence enhancement was observed when treating compound 202a (10 μM) with increasing concentrations of Cys (1-20 equiv.), indicating a high sensitivity of compound 202a towards Cys. […] In addition, to confirm the H2S delivery from compound 202a, compound 202a (10 μM) was treated with Cys (100 μM) in PBS containing CA (25 μg/mL) and quantified H2S release using the MB assay. […] Optical measurement conditions were as follows: […], and slit width=0.3 mm.

Data set [2] deals with RAW 264.7 cells. Put plainly: Cytotoxicity in RAW 264.7 cells (CCK-8). It counts as cell-based. The note with it: concentrations up to 25 μM, 2 hours. The procedure:
In this example, cytoprotective activity of compound 202a against LPS-induced inflammation was evaluated. […] The compounds of the present disclosure were therefore evaluated to determine their anti-inflammatory activities due to H2S release. RAW 264.7 cells were incubated with compound 202a (0-25 μM) for 2 hours, followed by a 24-hour incubation with lipopolysaccharide (LPS, 0.5 μg/mL) to trigger the inflammatory response. The inflammation event usually results in the NO generation, which can be monitored by measuring nitrite (NO2—) accumulation. […] In particular, confluent RAW 264.7 cells were incubated in FBS-free DMEM containing vehicle (0.5% DMSO), compound 202a, BnSH, and compound 204 (10.0-100 μM) for 2 hours in a 96-well plate. The culture media were then removed and 100 μL of FBS-free DMEM containing 10% CCK-8 solution was added to each well, and cells were incubated for 2 hours at 37° C. The absorbance at 450 nm was measured by using a microplate reader (FIG. 9). The cell viability was measured and normalized to the vehicle group. The results are expressed as mean t SEM (n=6).

Data set [3] concerns HeLa cells. Put plainly: Cytotoxicity in HeLa cells (CCK-8). The note with it: 6.25-50.0 μM, 30 minutes. It counts as cell-based. The procedure: In this example, H2S delivery from compound 202a in HeLa cells was evaluated. To determine whether compound embodiments of the present disclosure can be activated to release COS/H2S in cellular environment, HeLa cells were treated with compound 202a under different conditions. HeLa cells were treated with compound 202a (50 μM) or compound 204 (50 μM) and H2S release was monitored using C7-Az, a H2S-responsive fluorescent probe. […] To confirm that compound 202a was not cytotoxic, confluent HeLa cells were incubated in FBS-free DMEM containing vehicle (0.5% DMSO), and compound 202a (6.25-50.0 μM) for 30 minutes in a 96-well plate. The culture media were then removed and 100 μL of FBS-free DMEM containing 10% CCK-8 solution was added to each well, and cells were incubated for 2 hours at 37° C. The absorbance at 450 nm was measured by using a microplate reader (see FIG. 8). The cell viability was measured and normalized to the vehicle group. The results are expressed as mean t SEM (n=6).

Data set [4] has as its system porcine liver esterase (PLE). In words: Esterase stability of the sulfenyl thiocarbonate group (fluorescence). Format: in vitro ADME. The note with it: compound 10 μM, PLE 1 U/mL, 2-hour incubation. The procedure: Compound 202a also (10 μM) was incubated with RSONs (100 μM), such as H2O2, ClO^−, O2^−, TBHP, Ser, Lys, Gly, GSSG, and GSNO, and COS/H2S release was monitored by tracking the fluorescein formation. […] Because the carbonate functional group may be sensitive to esterase-catalyzed hydrolysis, the esterase stability of the sulfenyl thiocarbonate group also was evaluated by incubating compound 202a (10 μM) with porcine liver esterase (PLE, 1 U/mL).

A short description of data set [5]: Selectivity of fluorescence turn on to cellular RSONs and thiols. The note with it: 10 μM, PBS at physiological pH, 2 hours. The procedure: Representative Procedure for Evaluating Selectivity of Compound EmbodIments to Cellular RSONs—To 3.00 mL of PBS was added a stock solution of compound 202a (3.00 μL, 10.0 mM in DMSO), followed by the addition of RSON stock solution (30.0 μL, 10.0 mM in H2O). After 2 hours of incubation at room temperature, the solution was excited at 490 nm and the fluorescence intensity (500-650 nm) was measured and recorded by using a Quanta Master 40 spectrofluorometer. For the NEM-pretreated group, NEM (30.0 μL, 1.00 M) was added to PBS (3.00 mL) containing CA (25.0 μg/mL) and Cys (100 μM). The solution was then incubated for 1 hour before adding the compound 202a stock solution (3.00 μL, 10.0 mM in DMSO).
In this example, fluorescence turn on of compound 202a (10 μM) in the presence of cellular reactive sulfur, oxygen, and nitrogen species (RSONs) (100 μM) was evaluated. […] Compound 202a (10 μM) was incubated with GSH, homocysteine (Hcy), N-acetyl cysteine (NAC), penicillamine (PEN), or bovine serum albumin (BSA) (100 μM), in PBS buffer (pH 7.4, 10 mM) containing CA (25 μg/mL) and the fluorescent intensity was measured after 2 hours. […]
Compound 202a also (10 μM) was incubated with RSONs (100 μM), such as H2O2, ClO^−, O2^−, TBHP, Ser, Lys, Gly, GSSG, and GSNO, and COS/H2S release was monitored by tracking the fluorescein formation. […]

For data set [6], the system named is RAW 264.7 cells. In words: Anti-inflammatory activity: LPS-induced NO2- accumulation (Griess). Conditions: pretreatment 25 μM for 2 hours, then LPS 0.500 μg/mL 24 hours. Format: cell-based. In general terms: The Griess reaction detects nitrite, a stable product of nitric oxide.
Experimental: Representative Procedure for Determining Anti-Inflammatory Activities of Compound Embodiments and Control Compounds—Macrophage RAW 264.7 cells were seeded in a 24-well plate (5×10^5 cells/well) containing 0.500 mL of DMEM and incubated at 37° C. under 5% CO2 for 24 hours. The confluent cells were washed with PBS and incubated with either compound 202a (0-25.0 μM), or GYY4137 (25.0 μM) at 37° C. for 2 hours. Compounds were then removed by washing cells with PBS and these pretreated cells were incubated in FBS-free DMEM containing LPS (0.500 μg/mL) for 24 hours. NO2— levels were measured by using a Griess Reagent Kit.
The subject of data set [7] is RAW 264.7 cells. The note with it: 100-1000 μM and 24-hour incubation; cited from earlier work.
Data set [8] concerns HeLa cells. Put plainly: Imaging of H2S delivery in HeLa cells with SF7-AM probe. The note with it: compound 50 μM 30 minutes, SF7-AM 5 μM. It counts as cell-based. The procedure:
In this example, H2S delivery from sulfenyl thiocarbamate compound 306a in HeLa cells was evaluated. HeLa cells were treated with Hoechst dye and SF7-AM (5 μM) in DMEM only for 5 minutes and then with DMEM only for 30 minutes (top row) or DMEM containing the compound (50 μM) for 30 minutes (bottom row). Cells were then washed with PBS and cell images were taken in PBS using a fluorescent microscope.

Data set [9] is described as follows: Thiol-triggered H2S release in PBS containing CA (MB assay). Conditions: compound 50 μM. As for the experimental part:
To evaluate thiol effects on COS/H2S release from cyclic perthiocarbamate compound embodiments, compound 306a (50 μM) was incubated in PBS (pH 7.4, 10 mM) containing Cys or GSH (up to 4.0 mM) and CA (25 μg/mL) and H2S release was monitored by MB assay. […] Additionally, other thiol triggers, such as cysteine, homocysteine, and N-acetyl cysteine, were combined with compound 306a to evaluate if they would trigger the compound to release H2S.
In this example, GSH-triggered H2S release from compound 900 was evaluated. […] To improve the H2S releasing capacity of ATB-346, compound 900 was made by reacting ATB-346 with chlorocarbonyl sulfenyl chloride reagent (see Scheme 9). The resultant compound 900 was then added to PBS containing GSH and CA.
Release of H2S from compound 404c (25 μM) in the presence of L-cysteine or reduced glutathione (GSH) (500 μM, 20 equiv.) measured by the spectrophotometric methylene blue assay, with results shown in FIG. 17.
In this example, additional compounds, such as cyclic sulfenyl thiocarbamate compounds 306a-306e, were evaluated for their ability to release H2S upon exposure to a biological thiol, cysteine.
With the hybrid NSAID in hand, COS/H2S release in aqueous buffer was evaluated.

Consider 3 compounds from patent US20210214368A1, “COMPOUNDS FOR THIOL-TRIGGERED COS AND/OR H2S RELEASE AND METHODS OF MAKING AND USING THE SAME” (University of Oregon, priority 2018, published 2021).

Take `O=C(Oc1ccc2c(c1)Oc1cc(OC(=O)SSCc3ccccc3)ccc1C21OC(=O)c2ccccc21)SSCc1ccccc1` [Compound 202a]: the “fluorescent signal in the absence of Cys (stability in aqueous buffer)” value in data set [1] is recorded as “No fluorescent signal was observed”. Further, in the data set on RAW 264.7 cells [2], the “cytotoxicity in RAW 264.7 cells” value is on record as “did not induce cytotoxicity”. The “cytotoxicity in HeLa cells” value in the data set on HeLa cells [3] was “not cytotoxic”. Also, in data set [4], the “fluorescence with porcine liver esterase” value was “slight fluorescence turn on”. Moreover, in data set [5], the “stability in PBS in the absence of thiols” value is recorded as “stable”.

Turning to `C1COCCN1.COc1ccc(P(=S)(S)N2CCOCC2)cc1` (stereo not shown) [GYY4137], the “anti-inflammatory activity at 25 μM (NO2− production)” value in the data set on RAW 264.7 cells [6] is given as “such cytoprotection was not observed”. Moreover, the “anti-inflammatory effects at higher concentration and longer incubation” value in the data set with RAW 264.7 cells [7] is on record as “anti-inflammatory effects”.

As for `O=c1nc(-c2ccccc2)ss1` [Compound 306a], the “SF7-AM (H2S probe) fluorescence in HeLa cells” value in the data set on HeLa cells [8] is “strong SF7-AM fluorescent signal”. Besides, the “GSH-dependent H2S release” value in data set [9] (GSH up to 4.0 mM, CA 25 μg/mL, PBS pH 7.4) is given as “GSH-dependent H2S release was observed”. In data set [9] (PBS, CA), the “H2S release in the presence of thiols GSH, Cys, Hcy, and NAC” value was “H2S release was observed”; the “H2S release with GSSG, Lys, Ser, Gly, S2O3^2−, SO3^2−, SO4^2−” value is “did not activate the compound and minimal H2S release was observed”; the “H2S release with penicillamine” value is reported as “minimal H2S release”. In addition, the “H2S release in the absence of thiol trigger” value in data set [9] (PBS, no thiol) is “Negligible H2S release was observed”.
